US20240252694A1, “CONJUGATES COMPRISING COVALENT BINDERS FOR TARGETING INTRACELLULAR KRAS G12C PROTEINS” (RayzeBio, Inc., priority 2021, published 2024)
pIC50: −log10 of the molar value.

Legend:
KRAS (G12C) = molecular target: T1, KRAS (G12C) (Homo sapiens, UniProt P01116, G12C); experiment: KRAS G12C Nucleotide Exchange Assay (fixed GTP concentration); type: biochemical
T1 construct: purchased BPS Bioscience 79859
Protocol: A KRAS (G12C) Nucleotide Exchange Assay kit was used to evaluate compound antagonistic binding. The assay kit (BPS Bioscience. Catalog #79859) utilizes KRAS (G12C) labeled with BODIPY-GDP to determine if compounds can affect the nucleotide exchange (GDP to GTP) in KRAS signaling, Compounds were typically characterized using both protocols: fixed GTP concentrations and fixed inhibitor concentrations.
All reagents were prepared following manufacturer's protocol. 5 μL BODIPY-GDP and 10 μL of KRAS buffer were added to each well. A 3-fold serial dilution of compound in 5% DMSO was prepared. Typically, compounds were tested in the range of 0 μM to 50 μM, but the range could be modified depending on the characterization needs. 5 μL of diluted compound was added to the wells and the plate was centrifuged briefly to ensure all components were mixed before incubation at ambient temperature. After incubation for 2 hours, 10 μM GTP and 25 mM EDTA were mixed at a 1:1 ratio and 5 μL was added to the wells. The plate was then incubated for 1 hour at ambient temperature. After incubation, fluorescence was measured at […].
Data was analyzed by plotting fluorescence vs GTP concentration for control wells and compound wells.

[1] = system: human ERK1 dually phosphorylated at T202/Y204 and ERK2; experiment: Phosphorylated ERK1/ERK2 ELISA; type: cell-based; conditions: phosphorylated ERK in cell lysates after treatment with compounds; sandwich ELISA; cell line not stated
Protocol: An ERK phosphorylation ELISA kit was used to characterize compounds for KRAS-based cell activity. The sandwich ELISA (RnD Systems. Catalog #DYC1018B) measures human ERK1 that is dually phosphorylated at T202/Y204 and ERK2. Cell lysates from cells before and after treatment with compounds were prepared using kit manufacturer protocols.
All reagents were prepared following the kit's protocol. The wells of a 96-well microtiter plate were coated with 100 μL of 8.0 μg/mL of capture antibody in PBS. The plate was sealed and left to incubate overnight at ambient temperature. After incubation, the wells were washed with 400 μL of Wash Buffer for a total of 3 washes. Wells were then blocked by adding 300 μL of Block Buffer to each well and incubated at ambient temperature for 1-2 hours. After removal of the Block Buffer by aspirating and washing, 100 μL of standards and samples were added to the plate in duplicates and incubated for 2 hours at ambient temperature. The aspiration and wash steps were repeated to remove unbound standard and samples and 100 μL of 400 ng/mL detection antibody was applied to each well. After 2 hours at ambient temperature, detection antibody was removed by washing and 100 μL of Streptavidin-HRP was added to each well. Incubation of Streptavidin-HRP was at ambient temperature for 20 minutes, after which Streptavidin-HRP was removed by washing, 100 μL of Substrate Solution was added to each well and incubated for 20 minutes before 50 μL of Stop Solution was added to each well.
The optical density of each well was immediately analyzed at 450 nm with a wavelength correction at 540 nm. The standards were plotted by averaging the optical density for each replicate and fitted with a four-parameter logistic curve fit. Concentrations of phosphorylated ERK in cell lysate samples were determined by extrapolation from the standard curve and then adjusted for any dilution factors.

T1 sequence (P01116 1-188 isoform P01116-2 G12C): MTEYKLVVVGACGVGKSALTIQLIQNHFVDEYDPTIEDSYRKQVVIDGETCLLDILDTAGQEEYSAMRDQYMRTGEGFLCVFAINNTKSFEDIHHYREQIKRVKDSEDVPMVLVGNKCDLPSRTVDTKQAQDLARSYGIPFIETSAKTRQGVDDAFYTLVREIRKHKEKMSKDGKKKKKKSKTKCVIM

## C=CC(=O)N1CCN(c2nc(OC[C@@H]3CCCN3CCCCNC(=O)CN3CCN4CCN5CCN(CC3)CC(=O)[O][Lu]([O]C(=O)C4)[O]C(=O)C5)nc3c2CCN(c2cccc4cccc(Cl)c24)C3)C[C@@H]1CC#N [Lu-CHL-003, N-[4-[(2S)-2-[[7-(8-chloro-1-naphthyl)-4-[(3S)-3-(cyanomethyl)-4-prop-2-enoyl-piperazin-1-yl]-6,8-dihydro-5Hpyrido[3,4-d]pyrimidin-2-yl]oxymethyl]pyrrolidin-1-yl]butyl]-2-(3,16,19-trioxo-2,17,18-trioxa-5,8,11,14-tetrazaλ3-lutetatricyclo[9.6.3,25,14]docosan-8-yl)acetamide]
KRAS (G12C)
  pIC50: > 6.00
[1]
  pIC50: 5.00 to 6.00
